Data reported in ChEMBL document CHEMBL3352105, “Design, synthesis and SAR analysis of antitumour styryl lactones related to (+)-crassalactones B and C” (Eur J Med Chem, 2014).
pIC50: −log10 of the molar value.

Legend:
[1] = Cytotoxicity against human HL60 cells after 72 hrs by MTT assay; assay type: functional, cell-based; settings: HL-60, 72 h
[2] = system: K562; experiment: Cytotoxicity against human K562 cells after 72 hrs by MTT assay; assay type: functional, cell-based; settings: K562, 72 h
[3] = system: MRC5; experiment: Cytotoxicity against human MRC5 cells after 72 hrs by MTT assay; assay type: cell-based; settings: MRC5, 72 h
[4] = system: Raji; experiment: Cytotoxicity against human Raji cells after 72 hrs by MTT assay; assay type: functional, cell-based
[5] = system: MCF7; experiment: Cytotoxicity against human MCF7 cells after 72 hrs by MTT assay; assay type: functional, cell-based; settings: MCF7, 72 h
[6] = system: MDA-MB-231; experiment: Cytotoxicity against human MDA-MB-231 cells after 72 hrs by MTT assay; assay type: functional, cell-based; settings: MDA-MB-231, 72 h
[7] = system: HeLa; experiment: Cytotoxicity against human HeLa cells after 72 hrs by MTT assay; assay type: functional, cell-based
[8] = system: Jurkat; experiment: Cytotoxicity against human Jurkat cells after 72 hrs by MTT assay; assay type: functional, cell-based
[9] = system: HL-60; experiment: Potency index, ratio of IC50 for doxorubicin to IC50 for test compound against human HL60 cells after 72 hrs by MTT assay; assay type: functional
[10] = system: Raji; experiment: Potency index, ratio of IC50 for doxorubicin to IC50 for test compound against human Raji cells after 72 hrs by MTT assay; assay type: functional

SMILES | pIC50 [1] | pIC50 [2] | pIC50 [3] | pIC50 [4] | pIC50 [5] | pIC50 [6] | pIC50 [7] | pIC50 [8] | Ratio IC50 [9] | Ratio IC50 [10]
COc1ccc(/C=C/C(=O)O[C@@H]2[C@H]3OC(=O)C[C@H]3O[C@@H]2[C@H](O)c2ccccc2)cc1 | 4.30 | 5.38 | < 4.00 | 5.24 | 4.96 | < 4.00 | 4.73 | 4.87 | – | –
O=C(/C=C/c1ccc([N+](=O)[O-])cc1)O[C@@H]1[C@H]2OC(=O)C[C@H]2O[C@@H]1[C@H](O)c1ccccc1 | 4.32 | 4.83 | < 4.00 | 5.08 | < 4.00 | 5.27 | 4.67 | 4.35 | – | –
O=C(/C=C/c1ccc(F)cc1)O[C@@H]1[C@H]2OC(=O)C[C@H]2O[C@@H]1[C@H](O)c1ccccc1 | 4.94 | 4.99 | < 4.00 | 4.96 | 4.83 | 4.59 | 4.52 | 4.76 | – | –
COc1ccc(/C=C/C(=O)O[C@H](c2ccccc2)[C@H]2O[C@@H]3CC(=O)O[C@@H]3[C@H]2O)cc1 | 4.38 | 5.49 | < 4.00 | 5.36 | 4.91 | < 4.00 | 4.60 | 4.37 | – | –
O=C(/C=C/c1ccc([N+](=O)[O-])cc1)O[C@H](c1ccccc1)[C@H]1O[C@@H]2CC(=O)O[C@@H]2[C@H]1O | 4.84 | 5.65 | < 4.00 | 4.79 | 5.28 | 4.48 | 4.45 | 4.98 | – | –
O=C(/C=C/c1ccc(F)cc1)O[C@H](c1ccccc1)[C@H]1O[C@@H]2CC(=O)O[C@@H]2[C@H]1O | 5.02 | 5.34 | < 4.00 | 4.84 | 4.73 | 4.53 | 4.62 | 4.74 | – | –
O=C(/C=C/c1ccccc1)O[C@@H]1[C@H]2OC(=O)C[C@H]2O[C@@H]1[C@@H](O)c1ccccc1 | 7.70 | 5.48 | < 4.00 | 4.84 | 6.66 | 5.06 | 5.61 | 6.06 | 46 | –
COc1ccc(/C=C/C(=O)O[C@@H]2[C@H]3OC(=O)C[C@H]3O[C@@H]2[C@@H](O)c2ccccc2)cc1 | 6.96 | 5.58 | < 4.00 | 5.63 | 4.69 | 5.14 | 5.49 | 5.95 | – | –
O=C(/C=C/c1ccc([N+](=O)[O-])cc1)O[C@@H]1[C@H]2OC(=O)C[C@H]2O[C@@H]1[C@@H](O)c1ccccc1 | 6.44 | 5.95 | < 4.00 | 5.99 | 4.25 | 5.58 | 5.78 | 5.45 | – | 3
O=C(/C=C/c1ccc(F)cc1)O[C@@H]1[C@H]2OC(=O)C[C@H]2O[C@@H]1[C@@H](O)c1ccccc1 | 5.68 | 6.07 | < 4.00 | 5.76 | 4.07 | 5.88 | 5.39 | 6.16 | – | –
O=C(/C=C/c1ccccc1)O[C@@H](c1ccccc1)[C@H]1O[C@@H]2CC(=O)O[C@@H]2[C@H]1O | 5.87 | 5.70 | < 4.00 | 5.88 | 5.02 | 5.47 | 6.16 | 5.99 | – | –
COc1ccc(/C=C/C(=O)O[C@@H](c2ccccc2)[C@H]2O[C@@H]3CC(=O)O[C@@H]3[C@H]2O)cc1 | 5.06 | 4.94 | < 4.00 | 5.07 | 5.02 | 4.54 | 4.96 | 4.73 | – | –
O=C(/C=C/c1ccc([N+](=O)[O-])cc1)O[C@@H](c1ccccc1)[C@H]1O[C@@H]2CC(=O)O[C@@H]2[C@H]1O | 4.98 | 4.85 | < 4.00 | 5.36 | 5.38 | 4.19 | 5.40 | 4.61 | – | –
O=C(/C=C/c1ccc(F)cc1)O[C@@H](c1ccccc1)[C@H]1O[C@@H]2CC(=O)O[C@@H]2[C@H]1O | 4.96 | 4.80 | < 4.00 | 4.90 | 5.27 | 4.50 | 5.36 | 4.71 | – | –
O=C(/C=C/c1ccccc1)O[C@@H]1[C@H]2OC(=O)C[C@H]2O[C@@H]1[C@H](OC(=O)/C=C/c1ccccc1)c1ccccc1 | 5.48 | 4.67 | 4.31 | 4.96 | < 4.00 | < 4.00 | 4.91 | 5.58 | – | –
O=C(/C=C/c1ccccc1)O[C@@H]1[C@H]2OC(=O)C[C@H]2O[C@@H]1[C@@H](OC(=O)/C=C/c1ccccc1)c1ccccc1 | 6.82 | 5.67 | < 4.00 | 4.99 | 5.79 | 5.17 | 5.84 | 6.51 | – | –
O=C(/C=C/c1ccccc1)OC1C2OC(=O)CC2O[C@@H]1Cc1ccccc1 (single isomer, unassigned) | 5.66 | 5.33 | < 4.00 | 6.06 | 4.23 | 5.36 | 5.90 | 6.54 | – | –
COc1ccc(/C=C/C(=O)OC2C3OC(=O)CC3O[C@@H]2Cc2ccccc2)cc1 (single isomer, unassigned) | 6.57 | 5.99 | < 4.00 | 5.45 | 4.21 | 5.36 | 6.03 | 6.08 | – | –
O=C(/C=C/c1ccc([N+](=O)[O-])cc1)OC1C2OC(=O)CC2O[C@@H]1Cc1ccccc1 (single isomer, unassigned) | 6.85 | 6.01 | < 4.00 | 5.57 | 4.64 | 5.27 | 6.06 | 5.43 | – | –
O=C(/C=C/c1ccc(F)cc1)OC1C2OC(=O)CC2O[C@@H]1Cc1ccccc1 (single isomer, unassigned) | 5.99 | 6.60 | < 4.00 | 5.82 | 4.54 | 5.09 | 5.99 | 5.58 | – | –
O=C(/C=C/c1ccccc1)O[C@@H]1[C@H]([C@@H](O)c2ccccc2)O[C@H]2CC(=O)O[C@@H]12 [(+)-CRASSALACTONE B] | 5.60 | 6.11 | < 4.00 | 4.84 | 6.07 | 5.27 | 6.01 | 6.92 | – | –
O=C(/C=C/c1ccccc1)O[C@H](c1ccccc1)[C@H]1O[C@@H]2CC(=O)O[C@@H]2[C@H]1O [(+)-CRASSALACTONE C] | < 4.00 | – | < 4.00 | – | 5.13 | 4.06 | – | – | – | –
COc1cccc2c1C(=O)c1c(O)c3c(c(O)c1C2=O)C[C@@](O)(C(=O)CO)C[C@@H]3O[C@H]1C[C@H](N)[C@H](O)[C@H](C)O1 [DOXORUBICIN] | 6.04 | – | – | – | – | – | 7.19 | – | – | –
